In patent publication EP0446604A2, “Pyridine and related aza heterocycle derivatives as cardiovascular agents” (AMERICAN CYANAMID COMPANY, priority 1990, dated 1991):
Structures can show the parent of a compound that is named as a salt.

How the values were obtained:
[1] = test system: Male mice of the Swiss Webster Strain; experiment: Calcium chloride-induced arrhythmia in anesthetized mice (survival); assay type: in vivo; settings: Mus musculus, iv, Dose = 10 mg/kg i.v.; calcium chloride 200 mg/kg i.v. bolus 5, 15 or 30 minutes after drug; observed 15 minutes; read-out: CaCl2 #Mice Surviving #Mice Tested (converted)
Source text: (§1) Intravenous administration of high doses of calcium or potassium chloride in animals produces cardiac arrhythmias, cardiac fibrillation and cardiac arrest. Any agent that can prevent these events is considered an antiarrhythmic/antifibrillatory agent. (Meth. and Find Exptl. Clin Pharmacol.2:223-252(1980); Pharmacol, Ther. 24:401-433 (1984); Experimental Cardiac and Antiarrhythmic Drugs, L. Szekeres and Gy. J. Dapp, Akademiai Kiado Preso, Budapest, 9-448 (1971).)
(§2) The method employed is as follows: Male mice of the Swiss Webster Strain (Charles River, Wilmington, MA) weighing 25-35 g are anesthetized with ethyl carbamate (urethan) (1.5g/kg body weight i.p.). A 25-gauge needle attached to PE-20 tubing is inserted into a caudal vein for drug administration. The lead II ECG is recorded by needle electrodes placed subcutaneously in the limbs. All data is collected on a Gould Brush recorder. Animals are observed 5 minutes before drug administration. A 5, 15, or 30 minute period following drug administration is allowed before the bolus injection of calcium chloride, 200 mg/kg i.v. or potassium chloride, 62.5 mg/kg i.v. Control mice receive 4 ml/kg of 0.9% sodium chloride i.v. Mice are observed an additional 15 minutes for arrhythmias, fibrillation, survival or death. Any compound at a dose of less than 20 mg/kg i.v. that protects 3 out of 6 mice from cardiac death in either the potassium or calcium chloride test, is considered active.

[2] = test system: Male mice of the Swiss Webster Strain; experiment: Potassium chloride-induced arrhythmia in anesthetized mice (survival); assay type: in vivo; settings: Mus musculus, iv, Dose = 10 mg/kg i.v.; potassium chloride 62.5 mg/kg i.v. bolus 5, 15 or 30 minutes after drug; observed 15 minutes; read-out: KCl #Mice Surviving #Mice Tested (converted)
Source text: as §1, §2

[3] = biological target: T1, thromboxane synthetase enzyme (Rattus norvegicus, UniProt P49430); experiment: Inhibition of thromboxane (TXB2) formation in washed rat platelets, TXB2 radioimmunoassay; assay type: biochemical, Okamoto-Aoki spontaneously hypertensive rats (SHR); settings: Concentration 1x10^-4M, platelet suspension incubated 10 minutes at 37 °C
T1 construct: from tissue; host or cells: washed blood platelets from Okamoto-Aoki spontaneously hypertensive rats (SHR)
T1 sequence (P49430 1-533): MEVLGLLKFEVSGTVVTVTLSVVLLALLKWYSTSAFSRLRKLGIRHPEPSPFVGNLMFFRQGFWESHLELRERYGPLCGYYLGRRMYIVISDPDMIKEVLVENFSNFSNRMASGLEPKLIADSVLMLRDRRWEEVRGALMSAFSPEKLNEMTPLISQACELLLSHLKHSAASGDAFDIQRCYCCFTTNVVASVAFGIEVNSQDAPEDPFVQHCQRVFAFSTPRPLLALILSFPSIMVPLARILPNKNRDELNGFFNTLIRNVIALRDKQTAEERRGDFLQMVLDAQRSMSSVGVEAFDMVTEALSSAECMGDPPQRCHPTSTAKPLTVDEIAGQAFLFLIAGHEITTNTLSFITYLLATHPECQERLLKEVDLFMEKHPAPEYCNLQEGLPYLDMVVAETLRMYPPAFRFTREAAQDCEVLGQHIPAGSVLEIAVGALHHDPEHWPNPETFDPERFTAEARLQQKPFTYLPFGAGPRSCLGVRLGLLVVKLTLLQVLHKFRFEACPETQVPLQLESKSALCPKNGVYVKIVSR
Experimental: Under urethan anesthesia, […] of arterial blood from Okamoto-Aoki spontaneously hypertensive rats (SHR) (Taconic Farms, Germantown, NY) between 19 and 24 weeks in age is collected in one ml of 3.2% sodium citrate in a polystyrene tube. The blood is diluted with 3 ml of cold saline and centrifuged at room temperature for 15 minutes at 460xg. The platelet rich plasma (PRP) is separated. The platelets are isolated by centrifuging the PRP for 10 minutes at 1060xg and are washed in 4 ml of cold oxygenated Krebs phosphate buffer, pH 7.4. The chilled platelets, recovered from centrifuging at 800xg for 10 minutes, are resuspended in oxygenated Krebs phosphate buffer and diluted to contain 4.5-6.0 x 10⁴ platelets/µ1. The inhibition of thromboxane (TX) formation is studied by determining the concentration of thromboxane B₂ (TXB₂), the stable hydrolysis product of TXA₂. Assay samples, prepared on ice, contain 200 µ1 platelet suspension, 50 µ1 saline, and 50 µ1 vehicle (saline) or drug under study. The samples are incubated for 10 minutes at 37 °C in a metabolic shaker. The reaction is terminated by immersing the tubes in an ice bath and adding 50 µl of 0.5M citric acid. The samples are centrifuged for 10 minutes in a refrigerated centrifuge and the supernatants thus obtained are decanted and stored at -20 °C. The TXB₂ content for each sample is determined by a direct radioimmunoassay (RIA) utilizing a TXB₂ specific RIA kit purchased from New England Nuclear, Boston, MA and expressed as pg TXB₂ formed per minute per sample, from which the percent inhibition of TXB₂ formation is calculated.

Structure (SMILES)	responders at 10 mg/kg [1] [%]	responders at 10 mg/kg [2] [%]	inhibition at 100 µM [3] [%]
Cc1cccc(NCCCn2ccnc2)n1 [Example 10, N-[3-(1H-Imidazol-1-yl)propyl]-6-methyl-2-pyridinamine,(E)-2-butenedioate (2:3)]	0	50	
CC(=O)c1cc(C#N)c(NCCCn2ccnc2)nc1C [Example 12, 5-Acetyl-2-[[3-(1H-Imidazol-1-yl)propyl]amino]-6-methyl-3-pyridinecarbonitrile]	16.7	66.7	96
N#Cc1ccc(-c2cccc(C(F)(F)F)c2)nc1NCCCn1ccnc1 [Example 18, 2-[[3-(1H-Imidazol-1-yl)propyl]amino]-6-[3-(trifluoromethyl)phenyl]-3-pyridinecarbonitrile]			98
Cc1cc(C)c2ccc(NCCCn3ccnc3)nc2n1 [Example 24, N-[3-(1H-Imidazol-1-yl)propyl]-5,7-dimethyl-1,8-naphthyridin-2-amine, (E)-2-butenedioate (1:2)]	16.7	100	93
c1cnc2nc(NCCCn3ccnc3)ccc2c1 [Example 27, N-[3-(1H-Imidazol-1-yl)propyl]-1,8-naphthyridin-2-amine,(E)-2-butenedioate (1:2)]			90
Cc1cc(NCCCn2ccnc2)nc2nc(N)ccc12 [Example 34, N²-[3-(1H-Imidazol-1-yl)propyl]-4-methyl-1,8-naphthyridine-2,7-diamine]	50	66.7	98
Cc1ccc2ccc(NCCCn3ccnc3)nc2n1 [Example 38, N-[3-(1H-Imidazol-1-yl)propyl]-7-methyl-1,8-naphthyridin-2-amine,(E)-2-butenedioate (1:2)]	33.3	66.7	98
Cc1nccc2nc(NCCCn3ccnc3)ccc12 [Example 40, N-[3-(1H-Imidazol-1-yl)propyl]-5-methyl-1,6-naphthyridin-2-amine,(E)-2-butenedioate (2:3)]	33.3	50	95
c1ccc(-c2cc(NCCCn3ccnc3)nc3ccccc23)cc1 [Example 44, N-[3-(1H-Imidazol-1-yl)propyl]-4-phenyl-2-quinolinamine]			100
N#Cc1ccc(NCCCn2ccnc2)nc1 [Example 45, 6-[[3-(1H-Imidazol-1-yl)propyl]amino]-3-pyridinecarbonitrile]			92
NC(=O)c1ccc(NCCCn2ccnc2)nc1 [Example 46, 6-[[3-(1H-Imidazol-1-yl)propyl]amino]-3-pyridinecarboxamide]			80
Clc1cccc(NCCCn2ccnc2)n1 [Example 47, 6-Chloro-N-[3-(1H-imidazol-1-yl)propyl]-2-pyridinamine]			91
Cc1cccc2c(-c3ccccc3)cc(NCCCn3ccnc3)nc12 [Example 51, N-[3-(1H-Imidazol-1-yl)propyl]-8-methyl-4-phenyl-2-quinolinamine]			89
N#Cc1ccc(-c2ccncc2)nc1NCCCn1ccnc1 [Example 52, 2-[[3-(1H-Imidazol-1-yl)propyl]amino]-6-(4-pyridinyl)-3-pyridinecarbonitrile]			85
c1ccc(-n2nc3ccc(NCCCn4ccnc4)nc3n2)cc1 [Example 56, N-[3-(1H-Imidazol-1-yl)propyl]-2-phenyl-2H-1,2,3-triazolo[4,5-b]pyridin-5-amine]			95
O=[N+]([O-])c1ccc(Cl)nc1NCCCn1ccnc1 [Example 57, 6-Chloro-N-[3-(1H-imidazol-1-yl)propyl]-3-nitro-2-pyridinamine, monohydrochloride]			94
CC(=O)N(CCCn1ccnc1)c1ccc([N+](=O)[O-])cn1 [Example 58, N-[3-(1H-Imidazol-1-yl)propyl]-N-(5-nitro-2-pyridinyl)acetamide]			83
N#Cc1ccc(NCCCn2ccnc2)nc1-c1cccc(C(F)(F)F)c1 [Example 71, 6-[[3-(1H-Imidazol-1-yl)propyl]amino]-2-[3-(trifluoromethyl)phenyl]-3-pyridinecarbonitrile, (E)-2-butenedioate (1:1)]			100
CC(=O)N(CCCn1ccnc1)c1cc(C)c2ccccc2n1 [Example 83, N-[3-(1H-Imidazol-1-yl)propyl]-N-(4-methyl-2-quinolinyl)acetamide,monoacetate]			90
Cc1ccc(C#N)c(NCC(C)Cn2ccnc2)n1 (stereo not drawn) [Example 84, 2-[[3-(1H-Imidazol-1-yl)-2-methylpropyl]amino] 6-methyl-3-pyridinecarbonitrile, dihydrochloride]	50	83.3	
Cc1ccc(C#N)c(NCCC(C)n2ccnc2)n1 (stereo not drawn) [Example 85, 2-[[3-(1H-Imidazol-1-yl)butyl]amino]-6-methyl-3-pyridinecarbonitrile, dihydrochloride]	33.3	83.3	
CC(CCNc1nc2ccccc2c2ccccc12)n1ccnc1 (stereo not drawn) [Example 89, N-[3-(1H-Imidazol-1-yl)butyl]-6-phenanthridinamine]			98
Cc1ccc(C#N)c(NCc2cccnc2)n1 [Example 91, 6-Methyl-2-[(3-pyridinylmethyl)amino]-3-pyridinecarbonitrile]			81
Cc1ccc(C#N)c(NCc2ccncc2)n1 [Example 93, 6-Methyl-2-[(4-pyridinylmethyl)amino]-3-pyridinecarbonitrile]			86
Cc1cc(NCCc2cccnc2)nc2ccccc12 [Example 95, 4-Methyl-N-[2-(3-pyridinyl)ethyl]-2-quinolinamine,dihydrochloride]	16.7	66.7	
Cc1ccc(C#N)c(NCCc2ccncc2)n1 [Example 97, 6-Methyl-2-[[2-(4-pyridinyl)ethyl]amino]-3-pyridinecarbonitrile, dihydrochloride]	0	50	
Cc1cc(C)c2ccc(NCCCCc3cccnc3)nc2n1 [Example 109, 5,7-Dimethyl-N-[4-(3-pyridinyl)butyl]-1,8-naphthyridin-2-amine,(E)-2-butenedioate (1:2)]			97
c1ccc(-c2cc(NCCCCc3cccnc3)nc3ccccc23)cc1 [Example 110, 4-Phenyl-N-[4-(3-pyridinyl)butyl]-2-quinolinamine]			99
Cc1cccc2c(-c3ccccc3)cc(NCCCCc3cccnc3)nc12 [Example 111, 8-Methyl-4-phenyl-N-[4-(3-pyridinyl)butyl]-2-quinolinamine]			85
O=[N+]([O-])c1cccnc1NCCCCc1ccncc1 [compound 100]			88
